Laboratory results published in publication PMC12434495 (Chemical Science, 2025).

Assays:
α-thrombin = test: human α-thrombin; conditions: 37 °C, up to 4 h
[1] = cited from earlier work

| not cleaved (α-thrombin) | Substance | plasma half-life in vivo [1] |
| --- | --- | --- |
| <10% cleavage after 4 h | GEPGAPIDYDEYGDSSEEVGGAEVAQPKLYQRGEGGNGMEPIPEDYLQ (the three Y O-sulfated, R1,2,3 = SO3-) | – |
| – | bivalirudin | ~30 min |
